Assay results taken from paper PMC4027206, “Crystal structure of Saccharomyces cerevisiae mitochondrial GatFAB reveals a novel subunit assembly in tRNA-dependent amidotransferases” (Nucleic Acids Research, 2014).

Legend:
[1] = target: T1, GatFABF24–183 (pseudo-wild-type, full-length GatFAB) (Saccharomyces cerevisiae, UniProt Q03557); experiment: glutaminase assay, […]Gln, TLC; type: biochemical; conditions: 50 μM [14C]L-glutamine; Glu-tRNA^Gln, ATP, 12 mM MgCl2, pH 7.2, 37°C; labelled compound
T1 construct: gene HER2; heterotrimer; E. coli host; with Glutamyl-tRNA(Gln) amidotransferase subunit B, mitochondrial; Glutamyl-tRNA(Gln) amidotransferase subunit F, mitochondrial
T1 sequence (Q03557 1-464): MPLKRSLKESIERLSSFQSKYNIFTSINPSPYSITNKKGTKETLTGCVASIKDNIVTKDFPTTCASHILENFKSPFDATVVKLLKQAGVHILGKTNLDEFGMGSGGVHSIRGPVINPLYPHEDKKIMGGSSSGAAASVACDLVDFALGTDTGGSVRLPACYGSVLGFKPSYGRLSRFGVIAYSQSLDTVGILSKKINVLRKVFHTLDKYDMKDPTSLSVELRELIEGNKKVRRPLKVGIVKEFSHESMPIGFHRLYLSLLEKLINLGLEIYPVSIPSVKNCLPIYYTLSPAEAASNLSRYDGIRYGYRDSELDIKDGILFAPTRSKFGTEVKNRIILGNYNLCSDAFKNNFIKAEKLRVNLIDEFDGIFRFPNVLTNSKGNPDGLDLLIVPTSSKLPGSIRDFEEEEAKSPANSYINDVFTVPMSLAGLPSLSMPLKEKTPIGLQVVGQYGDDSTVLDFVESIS
T1 sequence (P33893 16-541 partner): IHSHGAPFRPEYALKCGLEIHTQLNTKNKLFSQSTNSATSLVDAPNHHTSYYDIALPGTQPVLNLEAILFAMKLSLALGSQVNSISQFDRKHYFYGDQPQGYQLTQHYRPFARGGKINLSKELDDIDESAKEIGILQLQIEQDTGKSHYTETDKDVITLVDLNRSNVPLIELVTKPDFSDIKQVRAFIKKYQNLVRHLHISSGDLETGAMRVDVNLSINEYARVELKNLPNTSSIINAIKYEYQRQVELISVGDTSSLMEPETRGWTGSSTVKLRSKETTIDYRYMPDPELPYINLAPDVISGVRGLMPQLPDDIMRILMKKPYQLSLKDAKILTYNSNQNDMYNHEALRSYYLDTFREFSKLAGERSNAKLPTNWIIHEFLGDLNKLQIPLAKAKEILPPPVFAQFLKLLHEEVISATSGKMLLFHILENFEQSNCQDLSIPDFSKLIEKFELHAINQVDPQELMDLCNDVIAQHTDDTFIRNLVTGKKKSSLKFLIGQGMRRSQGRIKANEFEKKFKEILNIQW
T1 sequence (P53260 24-183 partner): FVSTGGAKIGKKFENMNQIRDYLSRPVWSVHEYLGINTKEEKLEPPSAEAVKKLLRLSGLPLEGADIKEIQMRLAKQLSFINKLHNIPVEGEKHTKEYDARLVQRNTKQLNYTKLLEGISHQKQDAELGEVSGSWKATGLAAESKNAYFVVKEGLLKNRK

GatFABΔHY = target: T2, GatFABΔHY (Saccharomyces cerevisiae, UniProt Q03557); experiment: X-ray crystal structure, […] Å; type: binding; conditions: 10 mM glutamine added before crystallization; GatA glutaminase site (R334, D418, near S154)
T2 construct: gene HER2; heterotrimer; E. coli host; with Glutamyl-tRNA(Gln) amidotransferase subunit B, mitochondrial; Glutamyl-tRNA(Gln) amidotransferase subunit F, mitochondrial
T2 sequence (Q03557 1-464): T1 sequence (Q03557 1-464)
T2 sequence (P33893 16-329 partner): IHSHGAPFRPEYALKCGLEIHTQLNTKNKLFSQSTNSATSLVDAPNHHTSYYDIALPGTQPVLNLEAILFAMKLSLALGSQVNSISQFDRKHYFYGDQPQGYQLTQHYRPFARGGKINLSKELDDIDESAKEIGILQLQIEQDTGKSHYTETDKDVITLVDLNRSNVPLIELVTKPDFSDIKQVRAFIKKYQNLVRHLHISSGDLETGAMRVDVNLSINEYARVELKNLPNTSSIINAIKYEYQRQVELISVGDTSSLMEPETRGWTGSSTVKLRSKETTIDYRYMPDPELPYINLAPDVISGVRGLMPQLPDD
T2 sequence (P53260 24-183 partner): T1 sequence (P53260 24-183 partner)

NC(=O)CC[C@H](N)C(=O)O [glutamine]
glutaminase assay, [14C]Gln, TLC [1]: reduced activities in both GatA-mediated glutamine-hydrolysis and GatB-mediated transamidation when compared to that of the full-length | X-ray crystal structure, 2.0 Å (GatFABΔHY): the glutamine molecule is bound to the glutaminase site of GatA
